# Experimental data: paper PMC4472782, “Antibacterial Characterization of Novel Synthetic Thiazole Compounds against Methicillin-Resistant Staphylococcus pseudintermedius” (PLoS ONE, 2015)
# Where two headings read alike, the source gives them in different places.
# Columns and labels:
# [1] = human liver microsomes; cited from earlier work
# [2] = test system: MRSP SP3; assay: Post-antibiotic effect against MRSP; type: cell-based, Staphylococcus pseudintermedius; conditions: 4 × MIC for one hour
# Description: A tube containing untreated bacterial cells served as a control. Afterward, the compound/antibiotic was washed out by diluting bacteria 1:1000 in MHB. Counts of CFU for all cultures were obtained after washing. Aliquots (100 μL) of bacteria were removed every hour (for 10 hours), serially diluted in PBS, and plated on TSA plates. TSA plates were incubated for 20 hours at 37°C before CFU values were determined.
# [3] = test system: methicillin-resistant Staphylococcus pseudintermedius; assay: MBC determination against MRSP clinical isolates; type: cell-based; conditions: six MRSP isolates
# Description: (§1) The MBC was determined by plating 5 μL from wells on the 96-well microtiter plate (where the MIC was determined) where no growth was observed onto Tryptic soy agar (TSA) plates. […] The MBC was categorized as the concentration where ≥99% reduction in bacterial cell count was observed.
# [4] = test system: MRSP (SP3); assay: Multi-step resistance selection; type: cell-based, Staphylococcus pseudintermedius
# Description: To assess the ability of MRSP to develop resistance to the thiazole compounds, a multi-step resistance selection experiment was performed, as described elsewhere. The broth microdilution method for MIC determination against a clinical isolate of MRSP (SP3) was repeated for ten passages over a period of ten days. The initial inoculum was prepared to a McFarland standard of 0.5. The solution was subsequently diluted 1:300 in MHB to reach a starting inoculum of 1 × 10^5 CFU/mL. For each subsequent passage, the inoculum for the MIC determination was adjusted to a final density of approximately 5 × 10^5 CFU/mL using the contents of a well containing a subinhibitory concentration of the compound (where bacterial growth was observed from the previous passage). Bacteria were then transferred to a new 96-well microtiter plate.
# [5] = test system: MRSP SP3; assay: Time-kill analysis against MRSP; type: cell-based, Staphylococcus pseudintermedius; conditions: 4 × MIC, MRSP SP3, 24 hour incubation at 37°C
# Description: MRSP SP3 cells in late logarithmic growth phase were diluted to ~1 × 10^6 CFU/mL and exposed to concentrations equivalent to 4 × MIC (in triplicate) of thiazole compounds 1–6 and rifampicin in MHB. Samples (20 μL) were collected after 0, 2, 4, 6, 8, 10, 12, and 24 hours of incubation at 37°C and subsequently serially diluted in PBS. Bacteria were then transferred to TSA plates and incubated at 37°C for 20–24 hours before viable CFU/mL values were determined.
# [6] = Kinetic (turbidimetric) solubility in PBS; type: physicochemical; conditions: aqueous buffer, kinetic from dmso stock; phosphate-buffered saline; highest concentration with no precipitate; read-out: Solubility Limit
# Description: The absorbance of the PBS-containing plate was measured prior to addition of the test agents to determine the background absorbance. After 2 hours, the presence of precipitate was detected by turbidity (absorbance at 540 nm).
# [7] = test system: methicillin-sensitive Staphylococcus pseudintermedius; assay: MIC by broth microdilution against MSSP clinical isolates; type: cell-based; conditions: nine MSSP isolates, triplicate
# Description: (§2) Fifteen isolates of S. pseudintermedius (nine MSSP and six MRSP), identified at the Indiana Animal Disease Diagnostic Laboratory from specimens collected from dogs admitted to the small animal teaching hospital at Purdue University, were included in the study. The specimens were not collected specifically for this research study but were obtained from patients admitted to the hospital for treatment. Clinical specimens were inoculated onto 5% sheep blood agar and incubated at 35°C for 18–24 hours. Standard methods including examination of colony morphology and hemolysis and biochemical tests such as tube coagulase, Voges-Proskauer (VP) and fermentation tests for maltose, trehalose and lactose, were used in addition to matrix-assisted laser desorption ionization time of flight mass spectrometry to identify isolates. Antimicrobial susceptibility was determined by broth microdilution using the SensiTitre (Thermofisher Scientific).
# (§3) Bacteria were prepared in phosphate-buffered saline (PBS) until a McFarland standard of 0.5 was achieved. The solution was subsequently diluted 1:300 in Mueller-Hinton broth (MHB) to reach a starting inoculum of 1 × 10^5 colony-forming units (CFU/mL). Bacteria were then transferred to a 96-well microtiter plate. Thiazole compounds and antibiotics were added (in triplicate) to wells in the first row of the microtiter plate and then serially diluted along the vertical axis. […] The MIC was categorized as the concentration where there was no visible growth of bacteria observed.
# [8] = test system: methicillin-sensitive Staphylococcus pseudintermedius; assay: MBC determination against MSSP clinical isolates; type: cell-based; conditions: nine MSSP isolates
# Description: as §1
# [9] = test system: methicillin-resistant Staphylococcus pseudintermedius; assay: MIC by broth microdilution against MRSP clinical isolates; type: cell-based; conditions: six MRSP isolates, triplicate
# Description: as §2, §3
# [10] = Microsomal stability analysis in dog liver microsomes; type: in vitro ADME; conditions: pH 7.4, dog liver microsomes
# Description: The reaction contained microsomal protein in 100 mM potassium phosphate, 2 mM NADPH, 3 mM MgCl2, pH 7.4. A control was run for each test agent omitting NADPH to detect NADPH-free degradation. At 0, 10, 20, 40, and 60 minutes, an aliquot was removed from each experimental and control reaction and mixed with an equal volume of ice-cold Stop Solution (methanol containing haloperidol, diclofenac, or other internal standard). Stopped reactions were incubated at least 10 minutes at -20°C, and an additional volume of water was subsequently added. The samples were centrifuged to remove precipitated protein, and the supernatants were analyzed by LC/MS/MS to quantitate the remaining parent. Data were converted to % remaining by dividing by the time zero concentration value. Data were then fitted to a first-order decay model to determine half-life. Intrinsic clearance was calculated from the half-life and the protein concentrations, as has been described elsewhere.
structure (smiles),measurement,setting,value
CCCCC#Cc1ccc(-c2nc(C)c(/C(C)=N/NC(=N)N)s2)cc1 [Compound 3],clearance rate,[1],3.7 µL/min/mg
same,half-life,[1],more than 240 minutes
same,Post-antibiotic Effect,[2],>9 h
same,MBC,"[3]; Staphylococcus pseudintermedius, read-out: MBC50",0.71 µg/mL
same,MBC Range,[3],0.18 to 1.41 µg/mL
same,development of resistance by MRSP,"[4]; MRSP SP3, ten passages, resistance = greater than four-fold increase in initial MIC",not able to develop resistance
same,shift in the MIC over ten passages,"[4]; MRSP SP3, ten serial passages",no change
same,MIC,"[4]; Staphylococcus pseudintermedius, read-out: initial MIC",1.41 µg/mL
same,time required to completely eliminate MRSP,[5],within two hours
same,solubility at 2 h,[6],5.51 µg/mL
same,MIC50,[7]; lowest concentration inhibiting growth in 50% of isolates,0.71 µg/mL
same,MIC,[7]; read-out: MIC Range,0.18 to 0.94 µg/mL
same,MBC,"[8]; Staphylococcus pseudintermedius, lowest concentration that killed 50% of isolates, read-out: MBC50",0.71 µg/mL
same,MBC Range,[8],0.18 to 1.41 µg/mL
same,MIC50,"[9]; Staphylococcus pseudintermedius, read-out: MIC50",0.48 µg/mL
same,MIC Range,[9],0.18 to 1.41 µg/mL
same,microsomal CLint,"[10]; NADPH omitted, read-out: NADPH-free CLint",6.6 µL/min/mg
same,half-life,"[10]; NADPH omitted, read-out: NADPH-free T1/2",5.85 h
same,microsomal CLint,"[10]; with NADPH, duplicate, read-out: NADPH-dependent CLint",18.7 µL/min/mg
same,half-life,"[10]; with NADPH, duplicate, read-out: NADPH-dependent T1/2",2.05 h
